SMILES strings stand for the structures.

The series is described as follows: Competitive slurry experiment of Forms A to H. The series is classed as physicochemical. The settings on record: IPAc/Heptane or toluene, RT. The procedure: Approximately 2 to 3 mg of materials from Forms A to H were weighed into a 20.0 mL clear vial equipped with magnetic stir bars (Table 13). IPAc/Heptane (1:2 V/V) and toluene were used as the solvent systems for these competitive slurry experiments. Two selected solvents, 1.0 mL, were added to achieve free-flowing slurry and allowed to equilibrate at room temperature. All slurries will be isolated via centrifuge filtration after one day and seven days of equilibration.

For `O=C(O)CNC(=O)c1ncc(-c2cccc(F)c2)cc1O` [Form B, 2-(5-(3-fluorophenyl)-3-hydroxypicolinamido)acetic acid], the “Outcome in the competitive slurry experiment (in words)” value is “converted to Form A”.

For the origin of these results see patent publication US10150734B2, “Solid forms of 2-(5-(3-fluorophenyl)-3-hydroxypicolinamido)acetic acid, compositions, and uses thereof” (Akebia Therapeutics, Inc., priority 2015, dated 2018).
